Measurements as given in patent publication US8026269B2, “Isoindoline compounds and methods of making and using the same” (Celgene Corporation, priority 2004, dated 2011).

melting point	SMILES
163 to 165 °C	CCOc1cc(C(CC#N)N2C(=O)c3ccc4ccccc4c3C2=O)ccc1OC (centres unmarked) [Example 1, 3-(1,3-Dioxobenzo[e]isoindolin-2-yl)-3-(3-ethoxy-4-methoxyphenyl)propanenitrile]
184 to 186 °C	CCOc1cc([C@@H](CS(C)(=O)=O)N2C(=O)c3cccc(NC(=O)c4ccco4)c3C2=O)ccc1OC [Example 2, (1S)-Furan-2-carboxylic Acid {2-[1-(3-ethoxy-4-methoxyphenyl)-2-methanesulfonyl-ethyl]-1,3-dioxo-2,3-dihydro-1H-isoindol-4-yl}-amide]
163 to 165 °C	CCOc1cc(C(CC#N)N2C(=O)c3ccc(NC(N)=O)cc3C2=O)ccc1OC (centres unmarked) [Example 11]
179 to 181.5 °C	CCOc1cc(C(CC#N)N2C(=O)c3cccc(NC(N)=O)c3C2=O)ccc1OC (centres unmarked) [Example 12]

Further lines, the molecule ahead of its results:

SMILES	melting point
CCOc1cc([C@@H](CS(C)(=O)=O)N2C(=O)c3cccc(NC(=O)COC)c3C2=O)ccc1OC [Example 3, (1S)—N-{2-[1-(3-ethoxy-4-methoxyphenyl)-2-methanesulfonyl-ethyl]-1,3-dioxo-2,3-dihydro-1H-isoindol-4-yl}-2-methoxy-acetamide]	151 to 153 °C
CCOc1cc([C@@H](CS(C)(=O)=O)N2Cc3cccc(NCC4CC4)c3C2=O)ccc1OC [Example 4, (1S)-7-(Cyclopropylmethyl-amino)-2-[1-(3-ethoxy-4-methoxyphenyl)-2-methanesulfonyl-ethyl]-2,3-dihydro-isoindol-1-one]	147 to 149 °C
CCOc1cc([C@@H](CS(C)(=O)=O)N2Cc3cccc(NCC(C)C)c3C2=O)ccc1OC [Example 5, (1S)-2-[1-(3-Ethoxy-4-methoxyphenyl)-2-methanesulfonyl-ethyl]-7-isobutylamino-2,3-dihydro-isoindol-1-one]	122 to 124 °C
CCOc1cc([C@@H](CC(=O)N(C)C)N2Cc3cccc(NCC(C)(C)C)c3C2=O)ccc1OC [Example 6, (3R)-3-[7-(2,2-Dimethyl-propylamino)-1-oxo-1,3-dihydro-isoindol-2-yl]-3-(3-ethoxy-4-methoxyphenyl)-N,N-dimethyl-propionamide]	111 to 113 °C
COc1ccc(C(CS(C)(=O)=O)N2C(=O)c3cccc(NC(C)=O)c3C2=O)cc1OCC1CC1 (centres unmarked) [Example 13, N-{2-[1-(3-Cyclopropylmethoxy-4-methoxy-phenyl)-2-methanesulfonyl-ethyl]-1,3-dioxo-2,3-dihydro-1H-isoindol-4-yl}-acetamide]	102 to 104 °C
CCOc1cc([C@@H](CC(=O)N(C)C)N2Cc3cccc(NC(=O)N(C)C)c3C2=O)ccc1OC [Example 15, (3R)-3-(7-(3,3-Dimethyl-ureido)-1-oxo-1,3-dihydro-isoindol-2-yl}-3-(3-ethoxy-4-methoxy-phenyl)-N,N-dimethyl-propionamide]	105 to 107 °C
CCOc1cc([C@@H](CS(C)(=O)=O)N2Cc3cccc(NC(=O)N(C)C)c3C2=O)ccc1OC [Example 16, (1S)-3-{2-[1-(3-Ethoxy-4-methoxy-phenyl)-2-methanesulfonyl-ethyl]-3-oxo-2,3-dihydro-1H-isoindol-4-yl}-1,1-dimethyl-urea]	170 to 172 °C
